This assay has as its target T1, dopamine transporter (Rattus norvegicus, UniProt P23977).
T1 construct: Synaptosomes were prepared by homogenizing fresh tissue in 20 volumes of ice-cold 0.32 M sucrose; from tissue; host or cells: striatal (caudate nucleus) synaptosomes from fresh brain tissue
The assay can be described thus: Test B: uptake of [3H]dopamine and [3H]serotonin into striatal synaptosomes. Type of assay: biochemical. As to conditions: dopamine vs serotonin transporter.

Molecules are shown by their SMILES.

The record followed here is US6350758B1, “Tropane derivatives and method for their synthesis” (Georgetown University, priority 1996, dated 2002).

T1 sequence (P23977 whole entry): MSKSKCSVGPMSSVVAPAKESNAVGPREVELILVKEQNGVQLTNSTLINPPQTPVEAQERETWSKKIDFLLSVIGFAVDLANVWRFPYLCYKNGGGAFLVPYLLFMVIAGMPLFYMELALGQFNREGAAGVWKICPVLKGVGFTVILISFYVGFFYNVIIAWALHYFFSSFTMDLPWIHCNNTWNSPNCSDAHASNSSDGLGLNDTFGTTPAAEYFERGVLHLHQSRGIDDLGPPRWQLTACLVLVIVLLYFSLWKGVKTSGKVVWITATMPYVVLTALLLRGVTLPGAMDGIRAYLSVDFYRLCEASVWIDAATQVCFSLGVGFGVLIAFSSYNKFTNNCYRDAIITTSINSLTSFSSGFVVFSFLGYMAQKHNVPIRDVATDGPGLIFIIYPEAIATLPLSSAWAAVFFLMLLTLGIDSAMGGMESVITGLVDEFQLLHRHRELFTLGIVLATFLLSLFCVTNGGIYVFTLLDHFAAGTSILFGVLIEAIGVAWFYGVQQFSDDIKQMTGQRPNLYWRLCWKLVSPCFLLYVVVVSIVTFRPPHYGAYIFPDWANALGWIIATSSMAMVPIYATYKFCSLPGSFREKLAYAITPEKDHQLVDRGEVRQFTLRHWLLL
Description: Uptake of [^3H]dopamine and [^3H]serotonin was carried out using synaptosomes from the same brain regions as described above for binding assays. A Krebs phosphate buffer, pH 7.4, containing 1 μM pargyline, dextrose (1.9 mg/ml), and ascorbic acid (0.2 mg/ml) was used. Synaptosomes were prepared by homogenizing fresh tissue in 20 volumes of ice-cold 0.32 M sucrose using a glass-teflon homogenizer. Nuclei and large tissue fragments were removed by centrifugation at 800×g for 10 minutes. The supernatant was centrifuged at 20,000×g for 15 minutes to collect synaptosomes in a pellet. The pellet was resuspended in 0.32 M sucrose at a concentration of 15, 100 or 10 mg/ml original wet weight, and diluted 10 fold in the assay tubes. The final assay volume was 1.0 ml and the duration of incubation at 30° C. was 3 minutes so that uptake was inear with time in contrast to binding assays where binding had reached equilibrium.
Ki values were determined using serial dilutions of the analogues. A thirty minute preincubation of the analogues with the tissue was utilized before uptake was initiated by adding tritiated substrate. The preincubation was utilized to allow analogue and transporters to reach an equilibrium so that kinetic effects were not a significant factor. Ki values were determined using standard techniques.

Take `Cc1ccc([C@@H]2C[C@@H]3CC[C@H]([C@H]2c2ccccc2)N3C)cc1` [compound 37, (1R, 5S)-2β-Phenyl-3α-(p-tolyl)tropane]: the “selectivity for the dopamine transporter relative to the serotonin transporter” value was “highly selective”. As for `CN1[C@H]2CC[C@@H]1[C@@H](c1ccccc1)[C@H](c1ccccc1)C2` [compound 49, (1R,5S)-2β-Phenyl-3α-phenyltropane], the entry is “highly selective”.
